Laboratory results reported in publication PMC4286029 (Inflammation Research, 2014).

Key:
[1] = target: T1, p70S6 K (Homo sapiens, UniProt P23443); assay: KinaseProfiler selectivity: p70S6 K; assay type: biochemical
T1 construct: purchased Millipore Co. Ltd. (KinaseProfiler service)
Protocol: (§1) […]; The selectivity of JTE-052 for other kinases was assessed using KinaseProfiler™ (Millipore Co. Ltd.). […].

[2] = target: T2, MAPKAP-K2 (Homo sapiens, UniProt P49137); assay: KinaseProfiler selectivity: MAPKAP-K2; assay type: biochemical
T2 construct: purchased Millipore Co. Ltd. (KinaseProfiler service)
Protocol: as §1

[3] = target: T3, Flt3 (Homo sapiens, UniProt P36888); assay: KinaseProfiler selectivity: Flt3; assay type: biochemical
T3 construct: purchased Millipore Co. Ltd. (KinaseProfiler service)
Protocol: as §1

[4] = target: T4, FGFR1 (Homo sapiens, UniProt P11362); assay: KinaseProfiler selectivity: FGFR1; assay type: biochemical
T4 construct: purchased Millipore Co. Ltd. (KinaseProfiler service)
Protocol: as §1

[5] = target: T5, SAPK2b (Homo sapiens, UniProt Q15759); assay: KinaseProfiler selectivity: SAPK2b; assay type: biochemical
T5 construct: purchased Millipore Co. Ltd. (KinaseProfiler service)
Protocol: as §1

[6] = target: T6, PKCγ (Homo sapiens, UniProt P05129); assay: KinaseProfiler selectivity: PKCγ; assay type: biochemical
T6 construct: purchased Millipore Co. Ltd. (KinaseProfiler service)
Protocol: as §1

[7] = target: T7, MAPK2 (Homo sapiens, UniProt P28482); assay: KinaseProfiler selectivity: MAPK2; assay type: biochemical
T7 construct: purchased Millipore Co. Ltd. (KinaseProfiler service)
Protocol: as §1

[8] = target: T8, MEK1 (Homo sapiens, UniProt Q02750); assay: KinaseProfiler selectivity: MEK1; assay type: biochemical
T8 construct: purchased Millipore Co. Ltd. (KinaseProfiler service)
Protocol: as §1

[9] = target: T9, CDK2/cyclinA (Homo sapiens, UniProt P24941); assay: KinaseProfiler selectivity: CDK2/cyclinA; assay type: biochemical
T9 construct: purchased Millipore Co. Ltd. (KinaseProfiler service)
Protocol: as §1

[10] = test system: IL-23 signaling (JAK2/Tyk2), Stat3 phosphorylation in hPBMCs; assay: cells; conditions: Homo sapiens, 0.25 h, read-out: IC50, IL-23 cytokine signaling (JAK2/Tyk2)
Protocol: (§2) hPBMCs (3 × 10^6 cells/tube) were incubated with a test compound for 30 min at 37 °C, and then treated with IL-2 (100 ng/mL), IL-6 (100 ng/mL), IL-23 (100 ng/mL), IFN-α (100 ng/mL), or GM-CSF (1 ng/mL) for an additional 15 min. To terminate the stimulation, the cells were fixed with Fixation Buffer (BD Biosciences) for 10 min at 37 °C. The fixed cells were incubated with Perm Buffer II (BD Biosciences) for 30 min on ice and then incubated with fluorochrome-labeled anti-CD3, anti-CD4, or anti-phospho-Stat antibodies for 30 min at room temperature. The cytokine-induced Stat phosphorylation was analyzed and quantified using a Cytomics FC500 (Beckman Coulter Inc., Brea, CA). In the case of IL-23 stimulation, hPBMCs were precultured with 10 μg/mL phytohemagglutinin (PHA)-M (Sigma-Aldrich Co.) for 3 days to enhance their response to IL-23.
(§3) The phosphorylation levels of Stat5 (IL-2 and GM-CSF), Stat3 (IL-6 and IL-23), or Stat1 (IFN-α) in CD3^+CD4^+ cells (IL-2, IL-23, and IFN-α) or CD3^-CD4^+ cells (IL-6 and GM-CSF) were analyzed by flow cytometry. Data are presented as percentages of mean fluorescence intensity relative to vehicle (100 %) and non-stimulated control cells (0 %). Values are mean ± SEM. Three independent experiments were performed

[11] = test system: IFN-α signaling (JAK1/Tyk2), Stat1 phosphorylation in hPBMCs; assay: cells; conditions: Homo sapiens, 0.25 h, read-out: IC50, IFN-α cytokine signaling (JAK1/Tyk2)
Protocol: as §2, §3

[12] = test system: IL-6 signaling (JAK1/JAK2), Stat3 phosphorylation in hPBMCs; assay: cells; conditions: Homo sapiens, 0.25 h, read-out: IC50, IL-6 cytokine signaling (JAK1/JAK2)
Protocol: as §2, §3

[13] = test system: GM-CSF signaling (JAK2/JAK2), Stat5 phosphorylation in hPBMCs; assay: cells; conditions: Homo sapiens, 0.25 h, read-out: IC50, GM-CSF cytokine signaling (JAK2/JAK2)
Protocol: as §2, §3

[14] = test system: IL-2 signaling (JAK1/JAK3), Stat5 phosphorylation in hPBMCs; assay: cells; conditions: Homo sapiens, 0.25 h, read-out: IC50, IL-2 cytokine signaling (JAK1/JAK3)
Protocol: as §2, §3

[15] = target: T10, ZAP-70 (Homo sapiens, UniProt P43403); assay: KinaseProfiler selectivity: ZAP-70; assay type: biochemical
T10 construct: purchased Millipore Co. Ltd. (KinaseProfiler service)
Protocol: as §1

[16] = target: T11, cKit (Homo sapiens, UniProt P10721); assay: KinaseProfiler selectivity: cKit; assay type: biochemical
T11 construct: purchased Millipore Co. Ltd. (KinaseProfiler service)
Protocol: as §1

[17] = target: T12, IR (Homo sapiens, UniProt P06213); assay: KinaseProfiler selectivity: IR; assay type: biochemical
T12 construct: purchased Millipore Co. Ltd. (KinaseProfiler service)
Protocol: as §1

[18] = target: T13, Plk1 (Homo sapiens, UniProt P53350); assay: KinaseProfiler selectivity: Plk1; assay type: biochemical
T13 construct: purchased Millipore Co. Ltd. (KinaseProfiler service)
Protocol: as §1

[19] = target: T14, MSK1 (Homo sapiens, UniProt O75582); assay: KinaseProfiler selectivity: MSK1; assay type: biochemical
T14 construct: purchased Millipore Co. Ltd. (KinaseProfiler service)
Protocol: as §1

[20] = target: T15, Met (Homo sapiens, UniProt P08581); assay: KinaseProfiler selectivity: Met; assay type: biochemical
T15 construct: purchased Millipore Co. Ltd. (KinaseProfiler service)
Protocol: as §1

T14 sequence (O75582 whole entry, species assumed): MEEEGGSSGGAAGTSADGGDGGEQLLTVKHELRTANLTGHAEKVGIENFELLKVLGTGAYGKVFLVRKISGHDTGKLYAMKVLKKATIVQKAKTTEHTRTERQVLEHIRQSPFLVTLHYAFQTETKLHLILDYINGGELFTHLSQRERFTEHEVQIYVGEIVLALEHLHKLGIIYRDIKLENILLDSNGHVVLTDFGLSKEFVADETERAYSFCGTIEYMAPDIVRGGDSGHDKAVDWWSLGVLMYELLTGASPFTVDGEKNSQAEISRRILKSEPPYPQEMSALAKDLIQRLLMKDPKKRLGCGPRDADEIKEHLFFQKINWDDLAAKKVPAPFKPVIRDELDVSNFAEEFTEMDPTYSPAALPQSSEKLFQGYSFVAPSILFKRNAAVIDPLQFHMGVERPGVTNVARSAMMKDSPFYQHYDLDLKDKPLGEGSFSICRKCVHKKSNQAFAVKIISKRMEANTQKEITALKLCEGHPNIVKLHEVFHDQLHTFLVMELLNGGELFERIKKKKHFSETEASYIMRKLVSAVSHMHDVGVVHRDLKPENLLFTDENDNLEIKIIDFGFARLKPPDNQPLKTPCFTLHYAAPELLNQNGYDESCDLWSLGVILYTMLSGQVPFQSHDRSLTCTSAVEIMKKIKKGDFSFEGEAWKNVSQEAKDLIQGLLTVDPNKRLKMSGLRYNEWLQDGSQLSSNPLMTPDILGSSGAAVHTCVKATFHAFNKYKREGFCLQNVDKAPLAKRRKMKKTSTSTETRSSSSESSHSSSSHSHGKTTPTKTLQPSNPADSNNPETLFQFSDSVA
T7 sequence (P28482 whole entry): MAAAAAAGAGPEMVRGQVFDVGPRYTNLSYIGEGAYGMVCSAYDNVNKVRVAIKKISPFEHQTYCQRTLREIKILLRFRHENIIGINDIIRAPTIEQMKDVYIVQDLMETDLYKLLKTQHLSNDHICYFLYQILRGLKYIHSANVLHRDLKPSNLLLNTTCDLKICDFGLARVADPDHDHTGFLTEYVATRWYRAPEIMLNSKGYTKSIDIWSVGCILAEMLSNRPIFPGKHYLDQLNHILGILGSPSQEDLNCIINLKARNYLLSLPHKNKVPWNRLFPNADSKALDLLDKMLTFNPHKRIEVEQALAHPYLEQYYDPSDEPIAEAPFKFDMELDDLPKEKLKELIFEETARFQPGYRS
T12 sequence (P06213 28-1382): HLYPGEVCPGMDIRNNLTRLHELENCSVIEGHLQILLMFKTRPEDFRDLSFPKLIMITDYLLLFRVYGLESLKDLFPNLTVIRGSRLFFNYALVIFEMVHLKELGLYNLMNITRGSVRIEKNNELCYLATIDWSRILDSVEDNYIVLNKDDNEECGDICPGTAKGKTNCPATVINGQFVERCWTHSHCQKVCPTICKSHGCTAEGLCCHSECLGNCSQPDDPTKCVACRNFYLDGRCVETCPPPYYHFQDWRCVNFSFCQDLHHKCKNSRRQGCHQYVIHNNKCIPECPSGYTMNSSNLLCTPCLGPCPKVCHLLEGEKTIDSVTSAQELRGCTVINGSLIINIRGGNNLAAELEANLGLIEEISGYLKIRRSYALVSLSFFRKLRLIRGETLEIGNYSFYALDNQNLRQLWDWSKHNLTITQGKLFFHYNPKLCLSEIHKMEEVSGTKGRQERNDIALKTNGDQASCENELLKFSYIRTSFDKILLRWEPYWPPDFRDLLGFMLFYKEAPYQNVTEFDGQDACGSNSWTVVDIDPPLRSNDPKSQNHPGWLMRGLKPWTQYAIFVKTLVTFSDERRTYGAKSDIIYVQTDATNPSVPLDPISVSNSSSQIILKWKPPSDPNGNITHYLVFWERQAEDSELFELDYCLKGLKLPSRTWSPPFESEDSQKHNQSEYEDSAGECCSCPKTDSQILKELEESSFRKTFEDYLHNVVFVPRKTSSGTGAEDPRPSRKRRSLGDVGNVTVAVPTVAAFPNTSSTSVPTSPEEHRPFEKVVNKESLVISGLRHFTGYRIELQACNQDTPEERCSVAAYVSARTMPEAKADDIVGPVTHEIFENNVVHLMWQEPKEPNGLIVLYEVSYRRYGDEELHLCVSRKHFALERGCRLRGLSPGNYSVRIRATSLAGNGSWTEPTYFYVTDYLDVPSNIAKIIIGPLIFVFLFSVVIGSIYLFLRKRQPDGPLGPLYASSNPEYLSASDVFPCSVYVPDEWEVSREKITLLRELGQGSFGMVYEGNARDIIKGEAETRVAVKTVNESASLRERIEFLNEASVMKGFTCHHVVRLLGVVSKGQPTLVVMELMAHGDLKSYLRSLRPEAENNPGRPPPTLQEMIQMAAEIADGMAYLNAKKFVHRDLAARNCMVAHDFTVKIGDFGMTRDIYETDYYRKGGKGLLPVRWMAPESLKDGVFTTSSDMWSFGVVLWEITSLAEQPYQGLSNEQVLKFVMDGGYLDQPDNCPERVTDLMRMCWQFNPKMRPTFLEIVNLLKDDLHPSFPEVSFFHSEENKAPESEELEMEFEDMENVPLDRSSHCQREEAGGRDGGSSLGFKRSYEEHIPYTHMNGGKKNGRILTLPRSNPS
T10 sequence (P43403 whole entry): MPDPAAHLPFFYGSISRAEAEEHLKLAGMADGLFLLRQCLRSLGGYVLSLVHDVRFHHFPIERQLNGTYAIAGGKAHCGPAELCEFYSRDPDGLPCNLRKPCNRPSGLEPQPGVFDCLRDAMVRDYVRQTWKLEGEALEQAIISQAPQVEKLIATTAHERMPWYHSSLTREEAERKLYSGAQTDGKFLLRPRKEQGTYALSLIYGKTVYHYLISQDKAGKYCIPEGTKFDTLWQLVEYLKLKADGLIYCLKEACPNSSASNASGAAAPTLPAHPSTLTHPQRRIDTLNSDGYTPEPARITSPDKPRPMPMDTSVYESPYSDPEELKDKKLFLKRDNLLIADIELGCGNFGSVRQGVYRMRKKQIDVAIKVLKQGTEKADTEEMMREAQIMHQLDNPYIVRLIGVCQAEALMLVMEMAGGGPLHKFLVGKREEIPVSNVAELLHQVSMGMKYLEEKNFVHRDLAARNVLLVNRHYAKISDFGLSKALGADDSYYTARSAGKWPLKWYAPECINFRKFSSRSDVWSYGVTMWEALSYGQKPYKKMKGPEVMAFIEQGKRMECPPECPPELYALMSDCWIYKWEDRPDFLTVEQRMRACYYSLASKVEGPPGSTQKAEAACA
T5 sequence (Q15759 whole entry, species assumed): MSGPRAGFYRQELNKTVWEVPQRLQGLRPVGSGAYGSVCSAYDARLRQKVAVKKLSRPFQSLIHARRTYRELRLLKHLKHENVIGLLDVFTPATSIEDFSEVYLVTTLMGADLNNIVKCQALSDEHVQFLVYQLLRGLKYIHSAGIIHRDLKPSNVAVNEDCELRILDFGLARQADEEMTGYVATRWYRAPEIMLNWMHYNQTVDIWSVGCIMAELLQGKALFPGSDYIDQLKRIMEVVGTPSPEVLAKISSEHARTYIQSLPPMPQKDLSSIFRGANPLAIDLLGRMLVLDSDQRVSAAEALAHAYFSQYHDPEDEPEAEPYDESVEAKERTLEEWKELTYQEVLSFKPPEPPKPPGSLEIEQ
T13 sequence (P53350 whole entry, species assumed): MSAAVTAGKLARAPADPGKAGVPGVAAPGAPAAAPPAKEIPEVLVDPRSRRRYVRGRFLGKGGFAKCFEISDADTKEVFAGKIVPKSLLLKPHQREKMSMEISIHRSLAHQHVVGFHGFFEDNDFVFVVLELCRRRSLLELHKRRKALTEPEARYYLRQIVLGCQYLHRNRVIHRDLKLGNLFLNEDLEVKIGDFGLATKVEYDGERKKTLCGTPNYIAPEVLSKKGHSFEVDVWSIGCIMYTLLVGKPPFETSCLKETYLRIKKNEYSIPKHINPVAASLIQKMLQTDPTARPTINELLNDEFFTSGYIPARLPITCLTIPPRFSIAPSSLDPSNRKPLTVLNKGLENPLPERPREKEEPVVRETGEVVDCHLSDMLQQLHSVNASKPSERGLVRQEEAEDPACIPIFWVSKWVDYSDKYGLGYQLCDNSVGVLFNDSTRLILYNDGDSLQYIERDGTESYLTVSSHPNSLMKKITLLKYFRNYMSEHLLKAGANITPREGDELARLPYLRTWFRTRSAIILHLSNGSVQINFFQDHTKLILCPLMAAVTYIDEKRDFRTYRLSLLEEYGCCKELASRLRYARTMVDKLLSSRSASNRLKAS
T8 sequence (Q02750 whole entry, species assumed): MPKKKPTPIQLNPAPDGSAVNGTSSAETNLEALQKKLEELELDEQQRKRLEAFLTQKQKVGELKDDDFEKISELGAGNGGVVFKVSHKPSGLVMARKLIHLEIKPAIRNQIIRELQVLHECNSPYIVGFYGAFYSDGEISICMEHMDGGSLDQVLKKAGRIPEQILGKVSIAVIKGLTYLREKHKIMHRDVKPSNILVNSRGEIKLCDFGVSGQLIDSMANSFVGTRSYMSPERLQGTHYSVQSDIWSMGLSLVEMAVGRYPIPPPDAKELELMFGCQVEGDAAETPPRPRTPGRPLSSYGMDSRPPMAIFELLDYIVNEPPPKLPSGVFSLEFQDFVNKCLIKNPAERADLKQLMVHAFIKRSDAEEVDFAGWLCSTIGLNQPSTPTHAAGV
T2 sequence (P49137 whole entry, species assumed): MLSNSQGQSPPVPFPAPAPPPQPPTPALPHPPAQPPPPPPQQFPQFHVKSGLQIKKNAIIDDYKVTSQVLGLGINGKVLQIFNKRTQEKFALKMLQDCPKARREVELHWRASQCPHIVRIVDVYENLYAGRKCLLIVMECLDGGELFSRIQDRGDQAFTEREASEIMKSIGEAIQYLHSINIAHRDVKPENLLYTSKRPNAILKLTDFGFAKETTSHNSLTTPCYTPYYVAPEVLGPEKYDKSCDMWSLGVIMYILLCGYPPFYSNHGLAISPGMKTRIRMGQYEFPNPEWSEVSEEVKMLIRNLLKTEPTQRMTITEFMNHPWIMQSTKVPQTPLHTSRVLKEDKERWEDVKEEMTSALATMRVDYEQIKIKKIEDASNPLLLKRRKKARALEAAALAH

**Q.** How did the IC50 [1] turn out when `C[C@H]1CN(C(=O)CC#N)[C@]12CCN(c1ncnc3[nH]ccc13)C2` [JTE-052] was run?
**A.** > 1000 nM

**Q.** What about the IC50 [2] of the same compound?
**A.** > 1000 nM

**Q.** And the IC50 [3]?
**A.** > 1000 nM

**Q.** What about the IC50 [4] of the same compound?
**A.** > 1000 nM

**Q.** What about the IC50 [5] of the same compound?
**A.** > 1000 nM

**Q.** And the IC50 [6]?
**A.** > 1000 nM

**Q.** What about the IC50 [7] of the same compound?
**A.** > 1000 nM

**Q.** And the IC50 [8]?
**A.** > 1000 nM

**Q.** What about the IC50 [9] of the same compound?
**A.** > 1000 nM

**Q.** And the IC50 [10]?
**A.** 84 ± 11 nM

**Q.** What about the IC50 [11] of the same compound?
**A.** 18 ± 3 nM

**Q.** What about the IC50 [12] of the same compound?
**A.** 33 ± 14 nM

**Q.** And the IC50 [13]?
**A.** 304 ± 22 nM

**Q.** And the IC50 [14]?
**A.** 40 ± 9 nM

**Q.** And the IC50 [15]?
**A.** > 1000 nM

**Q.** What about the IC50 [16] of the same compound?
**A.** > 1000 nM

**Q.** And the IC50 [17]?
**A.** > 1000 nM

**Q.** What about the IC50 [18] of the same compound?
**A.** > 1000 nM

**Q.** What about the IC50 [19] of the same compound?
**A.** > 1000 nM

**Q.** What about the IC50 [20] of the same compound?
**A.** > 1000 nM
